We go through 4 compounds from ChEMBL document CHEMBL1201862, “PubChem BioAssay data set” (2004).

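Growth conditions: 96-well plates. Treatment: test compound, 48 hours, 5 concentrations. Analysis: linear interpolation between bracketing concentrations; unreached endpoints set to highest concentration. GI50 marks 50% less growth.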 Active and inactive are the calls of the source. Cut-off read from the data, not from the text of the source: active = GI50 up to about 1.1 µM and inactive = higher. A value given as a limit tells only on which side of the number the result lay.

Test systems include SK-OV-3; Hs-578T; KM12; A498; MDA-N; SW-620; NCI-H23; OVCAR-8; HCT-15; UACC-62; U-251; 786-0; CCRF-CEM; COLO 205; SK-MEL-28; SR; MOLT-4; SF-539; RXF 393.
What all share (experiment): NCI-60 cell line screen, 48 h

`Cc1cn(C2OC(CO[Si](C)(C)C(C)(C)C)C(N(C)O[Si](C)(C)C(C)(C)C)C2[Se]c2ccccc2)c(=O)[nH]c1=O` (stereo not given): the GI50 with SK-OV-3 is 17.4 µM (inactive); with Hs-578T it was 2.67 µM (inactive); in the experiment with KM12, 3.66 µM (inactive); in the experiment with A498, 14.9 µM (inactive); in the experiment on MDA-N it was 8.93 µM (inactive); in the experiment with SW-620, 3.48 µM (inactive). Also, the GI50 with NCI-H23 was 4.6 µM (inactive); with OVCAR-8, 3.74 µM (inactive); in the experiment on HCT-15, 4.59 µM; in the experiment on UACC-62, 8.75 µM (inactive); in the experiment with U-251, 3 µM (inactive); in the experiment with 786-0, 2.89 µM (inactive). For the same compound, the GI50 in the experiment with CCRF-CEM is 11.8 µM (inactive); in the experiment with COLO 205, 5.38 µM (inactive); in the experiment with SK-MEL-28, 5.56 µM (inactive); in the experiment with SR it was 9.89 µM (inactive); with MOLT-4, 3.72 µM (inactive).
Consider `O/N=C1\C/C(=N\O)c2c(Br)sc(Br)c21`, for which the GI50 was 91.8 µM (inactive) with SK-OV-3; 0.216 µM (active) in the experiment on Hs-578T; 32.6 µM (inactive) in the experiment with KM12; 38.2 µM (inactive) with SF-539; 58.1 µM (inactive) with A498; 78.5 µM (inactive) with MDA-N. The GI50 is 26.4 µM (inactive) in the experiment with SW-620; 20.4 µM (inactive) with NCI-H23; 19.2 µM (inactive) with OVCAR-8; 17.3 µM with HCT-15; 91.2 µM (inactive) in the experiment with UACC-62; 43.2 µM (inactive) with U-251. In addition, the GI50 in the experiment with 786-0 is 36 µM (inactive); in the experiment on CCRF-CEM it was 11.1 µM (inactive); in the experiment on COLO 205 it was 70.8 µM (inactive); in the experiment on SK-MEL-28 it was 24.7 µM (inactive); in the experiment on SR, 8.99 µM (inactive); in the experiment on MOLT-4 it was 29.2 µM (inactive).
On to `O=C1OC(c2ccccc2)N/C1=C\c1ccc2c(c1)OCO2` (stereo not given), for which the GI50 in the experiment on SK-OV-3 was > 100 µM (inactive); in the experiment on RXF 393, > 100 µM (inactive); with Hs-578T it was 72.9 µM (inactive); in the experiment on KM12, 46.7 µM (inactive); in the experiment with SF-539 it was 29.4 µM (inactive); in the experiment on MDA-N it was > 75.9 µM (inactive). The GI50 in the experiment on SW-620 is > 88.1 µM (inactive); in the experiment on NCI-H23, > 100 µM (inactive); with OVCAR-8, 43.5 µM (inactive); with HCT-15 it was over 100 µM; in the experiment on UACC-62, > 100 µM (inactive); in the experiment on U-251, 59.3 µM (inactive). For the same compound, the GI50 is > 100 µM (inactive) in the experiment on 786-0; 33.6 µM (inactive) in the experiment with CCRF-CEM; > 100 µM (inactive) with COLO 205; 87.5 µM (inactive) with SK-MEL-28; 28.1 µM (inactive) in the experiment with SR; > 63.1 µM (inactive) in the experiment on MOLT-4.
Take `CCOP(=O)(CN1CCNCCNCC1)OCC`: the GI50 in the experiment with SK-OV-3, with Hs-578T, with KM12, in the experiment on SF-539, with A498 and in the experiment on MDA-N was > 100 µM (inactive) in each case. For the same compound, the GI50 with SW-620 is > 100 µM (inactive); in the experiment on OVCAR-8, > 100 µM (inactive); in the experiment with HCT-15 it was over 100 µM; with UACC-62, > 100 µM (inactive); in the experiment with U-251 it was > 100 µM (inactive); in the experiment with 786-0, > 100 µM (inactive). Further, the GI50 in the experiment on CCRF-CEM, in the experiment on COLO 205, in the experiment on SK-MEL-28, in the experiment with SR and with MOLT-4 was > 100 µM (inactive) each time.
